Here are results for ten compounds from patent US10576062B2, “Carbamoyloxymethyl triazole cyclohexyl acids as LPA antagonists” (Bristol-Myers Squibb Company, priority 2016, dated 2020).

The IC50 is the concentration that inhibits the measured activity by half.

Molecules are shown by their SMILES. Read-outs that look alike come from different tables or passages of the source.

The experiment concerns the target T1, human LPA1 (Homo sapiens, UniProt Q92633).
T1 construct: expressed in transfected cells; host or cells: Chinese hamster ovary (CHO) cells
Nature of the experiment: LPA1 functional antagonist assay (LPA-induced calcium flux). It counts as cell-based. The note with it: read-out: hLPA1 IC50. In a few lines: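 CHO cells overexpressing human LPA1, loaded with calcium dye 30 min at 37° C, were preincubated 20 min at room temperature with compound (0.08 nM–5 μM, 0.5% DMSO) in HBSS/20 mM HEPES/0.1% fatty acid-free BSA.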
(Calcium assays in cells follow changes in intracellular calcium, usually with a dye or a luminescent sensor.)

Setting [1] is: CHO cells overexpressing human LPA1, inhibition of calcium flux induced by 10 nM LPA.

T1 sequence (Q92633 whole entry): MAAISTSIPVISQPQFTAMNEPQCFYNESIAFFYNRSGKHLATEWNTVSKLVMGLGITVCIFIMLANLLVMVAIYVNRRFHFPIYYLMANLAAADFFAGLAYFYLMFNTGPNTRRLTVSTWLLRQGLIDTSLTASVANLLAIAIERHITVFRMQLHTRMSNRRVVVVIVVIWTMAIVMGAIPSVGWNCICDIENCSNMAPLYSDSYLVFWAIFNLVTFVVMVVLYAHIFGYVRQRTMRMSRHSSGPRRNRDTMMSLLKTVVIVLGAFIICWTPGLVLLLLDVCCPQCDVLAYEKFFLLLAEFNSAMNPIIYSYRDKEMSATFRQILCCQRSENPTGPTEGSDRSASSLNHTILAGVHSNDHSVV

Turning to `Cc1nc(-c2nnn(C)c2COC(=O)N(C)Cc2ccncc2)ccc1O[C@H]1CCC[C@H](C(=O)O)C1` [Example 122, (1S,3S)-3-((2-methyl-6-(1-methyl-5-(((methyl(pyridin-4-ylmethyl)carbamoyl)oxy)methyl)-1H-1,2,3-triazol-4-yl)pyridin-3-yl)oxy)cyclohexane-1-carboxylic acid], the concentration for half-maximal inhibition (IC50) turned out to be 873 nM. Consider `Cc1nc(-c2nnn(C)c2COC(=O)N(C)CC2CC2)ccc1O[C@H]1CCC[C@H](C(=O)O)C1` [Example 115, (1S,3S)-3-((6-(5-((((cyclopropylmethyl)(methyl)carbamoyl)oxy)methyl)-1-methyl-1H-1,2,3-triazol-4-yl)-2-methylpyridin-3-yl)oxy)cyclohexane-1-carboxylic acid], for which the IC50 was determined as 18 nM. For `CCCCN(C)C(=O)OCc1c(-c2ccc(O[C@H]3CCC[C@H](C(=O)O)C3)c(C(F)(F)F)n2)nnn1C` [Example 275, (1S,3S)-3-((6-(5-(((butyl(methyl)carbamoyl)oxy)methyl)-1-methyl-1H-1,2,3-triazol-4-yl)-2-(trifluoromethyl)pyridin-3-yl)oxy)cyclohexane-1-carboxylic acid], under setting [1], the IC50 turned out to be 5.6 nM. For the compound `CCCN(C)C(=O)OCc1c(-c2ccc(O[C@H]3CCC[C@H](C(=O)O)C3)c(COC)n2)nnn1C` [Example 283, (1S,3S)-3-((2-(methoxymethyl)-6-(1-methyl-5-(((methyl(propyl)carbamoyl)oxy)methyl)-1H-1,2,3-triazol-4-yl)pyridin-3-yl)oxy)cyclohexane-1-carboxylic acid], the half-inhibitory concentration (IC50) under setting [1] stood at 475 nM. For the compound `Cc1nc(-c2nnn(C)c2COC(=O)N(C)C2(C)CC(C)C2)ccc1O[C@H]1CCC[C@H](C(=O)O)C1` (single isomer, unassigned) [Example 107], the half-maximal inhibitory concentration (IC50) worked out at 70 nM. On to `CCCN(C)C(=O)OCc1c(-c2cnc(O[C@H]3CCC[C@H](C(=O)O)C3)c(C)n2)nnn1C` [Example 218, (1S,3S)-3-((3-methyl-5-(1-methyl-5-(((methyl(propyl)carbamoyl)oxy)methyl)-1H-1,2,3-triazol-4-yl)pyrazin-2-yl)oxy)cyclohexane-1-carboxylic Acid], for which the IC50 under setting [1] worked out at 194 nM. Take `CN(CC1CC1(C)C)C(=O)OCc1c(-c2ccc(O[C@H]3CCC[C@H](C(=O)O)C3)cn2)nnn1C` (mixture of isomers) [Example 185, (1S,3S)-3-((6-(5-(((((2,2-dimethylcyclopropyl)methyl)(methyl)carbamoyl)oxy)methyl)-1-methyl-1H-1,2,3-triazol-4-yl)pyridin-3-yl)oxy)cyclohexane-1-carboxylic acid]: the IC50 (human LPA1) stood at 86 nM. Take `CN(C(=O)OCc1c(-c2ccc(O[C@H]3CCC[C@H](C(=O)O)C3)cn2)nnn1C)C1CCCC1` (racemic) [Example 18, (rac)-3-((6-(5-(((cyclopentyl(methyl)carbamoyl)oxy)methyl)-1-methyl-1H-1,2,3-triazol-4-yl)pyridin-3-yl)oxy)cyclohexane-1-carboxylic acid]: the 50% inhibitory concentration (IC50) amounted to 21 nM. On the same count and under the same terms, under `Cc1nc(-c2nnn(C)c2COC(=O)N2CCC(F)(F)C2)ccc1O[C@H]1CCC[C@H](C(=O)O)C1` [Example 143, (1S,3S)-3-((6-(5-(((3,3-difluoro-pyrrolidine-1-carbonyl)oxy)methyl)-1-methyl-1H-1,2,3-triazol-4-yl)-2-methylpyridin-3-yl)oxy)cyclohexane-1-carboxylic acid] stands 518 nM. On to `Cc1nc(-c2nnn(C)c2COC(=O)N(C)CC2CCCC2)cnc1O[C@H]1CCC[C@H](C(=O)O)C1` [Example 227, (1S,3S)-3-((5-(5-((((cyclopentylmethyl)(methyl)carbamoyl)oxy)methyl)-1-methyl-1H-1,2,3-triazol-4-yl)-3-methylpyrazin-2-yl)oxy)cyclohexane-1-carboxylic acid], for which the IC50 under setting [1] amounted to 18 nM.
